The results in this text go back to patent publication US20090036448A1, “PYRIMIDINE DERIVATIVES AND METHODS OF TREATMENT RELATED TO THE USE THEREOF” (TAISHO PHARMECUTICAL CO., LTD., priority 2004, published 2009).

The target in the assay is MCH receptor (Homo sapiens, UniProt Q99705). The assay can be described thus: Receptor binding assay with Radiolabelled MCH Ligand. More on the design: expressed in transfected cells; host or cells: 293 cells (human kidney, ATCC), transient transfection; crude membranes. Particulars: class by percent of control at 10^-7 M or IC50. In short, it runs like this: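 This was a filtration radioligand displacement assay: compounds, first tested at 1 and 0.1 μM and then over a range, inhibited binding of a labelled MCH ligand to transfected 293-cell membranes at room temperature for 60–120 min. Specific binding excluded a cold-MCH nonspecific signal. Ki was derived from IC50 via Cheng-Prusoff, using an independently measured KD.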
Sequence of MCH receptor (Q99705 whole entry): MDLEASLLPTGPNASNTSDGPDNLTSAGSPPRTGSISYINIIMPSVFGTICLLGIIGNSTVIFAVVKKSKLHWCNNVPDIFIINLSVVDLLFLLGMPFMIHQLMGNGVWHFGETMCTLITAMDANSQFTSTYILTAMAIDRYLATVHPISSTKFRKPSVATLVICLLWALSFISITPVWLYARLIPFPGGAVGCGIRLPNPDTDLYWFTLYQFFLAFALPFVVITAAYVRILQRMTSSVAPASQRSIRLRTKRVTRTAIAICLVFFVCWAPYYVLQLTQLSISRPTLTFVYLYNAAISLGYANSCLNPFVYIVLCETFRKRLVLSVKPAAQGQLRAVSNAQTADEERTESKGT
Turning to `Cc1nc(N[C@H]2CC[C@@H](NS(=O)(=O)c3ccc(Br)s3)CC2)cc(N(C)C)n1` [compound 520], the class is 3 (Class 3: The value of percent of control at 10^−7 M was more than 60% or the value of IC50 was more than 200 nM.).

On to `Cc1nc(N[C@H]2CC[C@@H](NC(=O)c3c(-c4c(F)cccc4Cl)noc3C)CC2)cc(N(C)C)n1` [compound 215, 3-(2-chloro-6-fluorophenyl)-N-(cis-4-{[6-(dimethylamino)-2-methylpyrimidin-4-yl]amino}cyclohexyl)-5-methylisoxazole-4-carboxamide], for which the class is listed as 1 (Class 1: The value of percent of control at 10^−7 M was less than 40% or the value of IC50 was less than 50 nM.).

On to `COc1ccc(C(=O)N[C@H]2CC[C@@H](Nc3cc(N(C)C)nc(C)n3)CC2)cc1OC` [compound 219], for which the class is given as 3 (Class 3: The value of percent of control at 10^−7 M was more than 60% or the value of IC50 was more than 200 nM.).

`Cc1nc(N[C@H]2CC[C@@H](NS(C)(=O)=O)CC2)cc(N(C)C)n1` [compound 478]: the class is 3 (Class 3: The value of percent of control at 10^−7 M was more than 60% or the value of IC50 was more than 200 nM.).

As for `Cc1nc(N[C@H]2CC[C@@H](NS(=O)(=O)c3ccc(Br)cc3OC(F)(F)F)CC2)cc(N(C)C)n1` [compound 501], the class is 3 (Class 3: The value of percent of control at 10^−7 M was more than 60% or the value of IC50 was more than 200 nM.).

Consider `CC(=O)OC(C(=O)N[C@H]1CC[C@@H](Nc2cc(N(C)C)nc(C)n2)CC1)c1ccccc1` (relative stereo) [compound 197], for which the class was 3 (Class 3: The value of percent of control at 10^−7 M was more than 60% or the value of IC50 was more than 200 nM.).

With `Cc1nc(N[C@H]2CC[C@@H](NC(=O)c3ccc4ccccc4c3)CC2)cc(N(C)C)n1` [compound 231], the class is given as 3 (Class 3: The value of percent of control at 10^−7 M was more than 60% or the value of IC50 was more than 200 nM.).

With `Cc1nc(N[C@H]2CC[C@@H](NCC3CCCCC3)CC2)cc(N(C)C)n1` [compound 363], the class is on record as 3 (Class 3: The value of percent of control at 10^−7 M was more than 60% or the value of IC50 was more than 200 nM.).

For the compound `CSc1sc(C(=O)N[C@H]2CC[C@@H](Nc3cc(N(C)C)nc(C)n3)CC2)c(Cl)c1S(=O)(=O)C(C)C` [compound 345], the class was 3 (Class 3: The value of percent of control at 10^−7 M was more than 60% or the value of IC50 was more than 200 nM.).

On to `Cc1nc(N[C@H]2CC[C@@H](NC(=O)Nc3c(Cl)cc(Cl)cc3Cl)CC2)cc(N(C)C)n1` [compound 430], for which the class was 3 (Class 3: The value of percent of control at 10^−7 M was more than 60% or the value of IC50 was more than 200 nM.).

As for `CCCCCCCCS(=O)(=O)N[C@H]1CC[C@@H](Nc2cc(N(C)C)nc(C)n2)CC1` [compound 480], the class is listed as 3 (Class 3: The value of percent of control at 10^−7 M was more than 60% or the value of IC50 was more than 200 nM.).

For `CCCCCCCCCc1ccc(CN[C@H]2CC[C@@H](Nc3cc(N(C)C)nc(C)n3)CC2)cc1` [compound 399], the class was 3 (Class 3: The value of percent of control at 10^−7 M was more than 60% or the value of IC50 was more than 200 nM.).

On to `Cc1nc(N[C@H]2CC[C@@H](NC(=O)NC(C)c3cccc4ccccc34)CC2)cc(N(C)C)n1` (relative stereo) [compound 415, N-(cis-4-{[6-(dimethylamino)-2-methylpyrimidin-4-yl]amino}cyclohexyl)-N′-[1-(1-naphthyl)ethyl]urea], for which the class is 1 (Class 1: The value of percent of control at 10^−7 M was less than 40% or the value of IC50 was less than 50 nM.).

For `Cc1nc(N[C@H]2CC[C@@H](NC(=O)COc3cccc4c(C)cc(=O)oc34)CC2)cc(N(C)C)n1` [compound 273], the class is 3 (Class 3: The value of percent of control at 10^−7 M was more than 60% or the value of IC50 was more than 200 nM.).

Take `CCCCCCCCCc1ccc(C(=O)N[C@H]2CC[C@@H](Nc3cc(N(C)C)nc(C)n3)CC2)cc1` [compound 254]: the class is 3 (Class 3: The value of percent of control at 10^−7 M was more than 60% or the value of IC50 was more than 200 nM.).

Regarding `CCCCCCCOc1ccc(CN[C@H]2CC[C@@H](Nc3cc(N(C)C)nc(C)n3)CC2)cc1` [compound 396], the class is on record as 3 (Class 3: The value of percent of control at 10^−7 M was more than 60% or the value of IC50 was more than 200 nM.).

For `Cc1nc(N[C@H]2CC[C@@H](NC(=O)CSc3ccccc3)CC2)cc(N(C)C)n1` [compound 246], the class was 3 (Class 3: The value of percent of control at 10^−7 M was more than 60% or the value of IC50 was more than 200 nM.).

In the case of `Cc1nc(N[C@H]2CC[C@@H](NC(=O)c3ccccc3CCc3ccccc3)CC2)cc(N(C)C)n1` [compound 305], the class is 3 (Class 3: The value of percent of control at 10^−7 M was more than 60% or the value of IC50 was more than 200 nM.).

With `Cc1nc(N[C@H]2CC[C@@H](NCc3ccc(F)cc3)CC2)cc(N(C)C)n1` [compound 372], the class is 3 (Class 3: The value of percent of control at 10^−7 M was more than 60% or the value of IC50 was more than 200 nM.).

With `Cc1nc(N[C@H]2CC[C@@H](NC(=S)Nc3c(Br)cc(Br)cc3Br)CC2)cc(N(C)C)n1` [compound 447, N-(cis-4-{[6-(dimethylamino)-2-methylpyrimidin-4-yl]amino}cyclohexyl)-N′-(2,4,6-tribromophenyl)thiourea], the class is 1 (Class 1: The value of percent of control at 10^−7 M was less than 40% or the value of IC50 was less than 50 nM.).

As for `Cc1nc(N[C@H]2CC[C@@H](NC(=O)Cc3ccc(Cl)cc3)CC2)cc(N(C)C)n1` [compound 213], the class is 3 (Class 3: The value of percent of control at 10^−7 M was more than 60% or the value of IC50 was more than 200 nM.).

With `Cc1nc(N[C@H]2CC[C@@H](NC(=O)CC3Cc4ccccc4C3)CC2)cc(N(C)C)n1` [compound 339], the class is on record as 3 (Class 3: The value of percent of control at 10^−7 M was more than 60% or the value of IC50 was more than 200 nM.).

In the case of `Cc1nc(N[C@H]2CC[C@@H](NC(=O)c3cnn(-c4ccc([N+](=O)[O-])cc4)c3C(F)(F)F)CC2)cc(N(C)C)n1` [compound 233], the class was 3 (Class 3: The value of percent of control at 10^−7 M was more than 60% or the value of IC50 was more than 200 nM.).

Take `Cc1nc(N[C@H]2CC[C@@H](NC(=O)C(=O)c3ccccc3)CC2)cc(N(C)C)n1` [compound 349]: the class is listed as 3 (Class 3: The value of percent of control at 10^−7 M was more than 60% or the value of IC50 was more than 200 nM.).

In the case of `Cc1ccc(C(=O)N[C@H]2CC[C@@H](Nc3cc(N(C)C)nc(C)n3)CC2)cc1` [compound 242], the class is 3 (Class 3: The value of percent of control at 10^−7 M was more than 60% or the value of IC50 was more than 200 nM.).

For `Cc1nc(N[C@H]2CC[C@@H](NS(=O)(=O)CCc3cccc4ccccc34)CC2)cc(N(C)C)n1` [compound 477], the class is given as 3 (Class 3: The value of percent of control at 10^−7 M was more than 60% or the value of IC50 was more than 200 nM.).

With `Cc1nc(N[C@H]2CC[C@@H](NS(=O)(=O)c3c(C)noc3C)CC2)cc(N(C)C)n1` [compound 512], the class is recorded as 3 (Class 3: The value of percent of control at 10^−7 M was more than 60% or the value of IC50 was more than 200 nM.).

Consider `Cc1nc(N[C@H]2CC[C@@H](NC(=O)C(C)c3ccc(N4Cc5ccccc5C4=O)cc3)CC2)cc(N(C)C)n1` (relative stereo) [compound 286], for which the class is recorded as 3 (Class 3: The value of percent of control at 10^−7 M was more than 60% or the value of IC50 was more than 200 nM.).

Turning to `Cc1nc(N[C@H]2CC[C@@H](NCc3ccc(OC(F)(F)F)cc3)CC2)cc(N(C)C)n1` [compound 393], the class is 3 (Class 3: The value of percent of control at 10^−7 M was more than 60% or the value of IC50 was more than 200 nM.).

Regarding `Cc1nc(N[C@H]2CC[C@@H](NCCOc3ccccc3[N+](=O)[O-])CC2)cc(N(C)C)n1` [compound 385], the class is 3 (Class 3: The value of percent of control at 10^−7 M was more than 60% or the value of IC50 was more than 200 nM.).

On to `Cc1nc(N[C@H]2CC[C@@H](NS(=O)(=O)Cc3ccc(F)cc3)CC2)cc(N(C)C)n1` [compound 474, N-(cis-4-{[6-(dimethylamino)-2-methylpyrimidim-4-yl]amino}cyclohexyl)-1-(4-fluorophenyl)methanesulfonamide], for which the class is 3 (Class 3: The value of percent of control at 10^−7 M was more than 60% or the value of IC50 was more than 200 nM.).

With `Cc1nc(N[C@H]2CC[C@@H](NC(=O)c3cnc4ccccc4n3)CC2)cc(N(C)C)n1` [compound 240], the class is reported as 3 (Class 3: The value of percent of control at 10^−7 M was more than 60% or the value of IC50 was more than 200 nM.).

Take `Cc1nc(N[C@H]2CC[C@@H](NS(=O)(=O)c3c(C)nn(C)c3C)CC2)cc(N(C)C)n1` [compound 513]: the class is 3 (Class 3: The value of percent of control at 10^−7 M was more than 60% or the value of IC50 was more than 200 nM.).

In the case of `Cc1nc(N[C@H]2CC[C@@H](NCCc3ccccc3)CC2)cc(N(C)C)n1` [compound 382], the class is on record as 3 (Class 3: The value of percent of control at 10^−7 M was more than 60% or the value of IC50 was more than 200 nM.).

As for `Cc1nc(N[C@H]2CC[C@@H](NC(=O)c3cccc(C(F)(F)F)c3)CC2)cc(N(C)C)n1` [compound 241, N-(cis-4-{[6-(dimethylamino)-2-methylpyrimidin-4-yl]amino}cyclohexyl)-3-(trifluoromethyl)benzamide], the class was 3 (Class 3: The value of percent of control at 10^−7 M was more than 60% or the value of IC50 was more than 200 nM.).

Turning to `Cc1nc(N[C@H]2CC[C@@H](NC(=O)CCC(=O)c3ccc(S(C)(=O)=O)cc3)CC2)cc(N(C)C)n1` [compound 292], the class was 3 (Class 3: The value of percent of control at 10^−7 M was more than 60% or the value of IC50 was more than 200 nM.).
